The numbers were not newly measured in patent publication US11324771B2 (priority 2020, dated 2022), which cites them from elsewhere.

Read-outs that look alike come from different tables or passages of the source.

Experiment in data set [1]: not given
The source holds these as a separate data set.

In the case of “cobinamide dihydroxide dihydrogen phosphate (ester), mono (inner salt), 3′-ester with 5,6-dimethyl-1-α-D-ribofuranosyl-1H-benzimidazole [Hydroxocobalamin]”, the “solubility in aqueous buffer” value is “highly soluble” (pH 1.2), “highly soluble” (pH 4.5), below 0.4 mg/mL (pH 6.8) and below 0.4 mg/mL (pH 7.5). In addition, the solubility in acetone result in data set [1] (acetone) is recorded as “practically insoluble”. Also, in data set [1] (benzene), the solubility in benzene entry is listed as “practically insoluble”. In data set [1] (chloroform), the solubility in chloroform result was “practically insoluble”. Besides, in data set [1] (dimethyl sulfoxide), the “solubility in dimethyl sulfoxide” value is reported as “freely soluble”. Also, the “solubility in diethyl ether / ether” value in data set [1] (ether) was “practically insoluble”. Besides, the “solubility in ethyl acetate” value in data set [1] (ethyl acetate) is reported as “practically insoluble”. Further, the solubility in methanol result in data set [1] (methanol) is “freely soluble”. Moreover, the solubility in water result in data set [1] (water) was “freely soluble”.
